According to the supplement of paper PMC10307832:

How the values were obtained:
Test in all cases: relative viability (nuclei count vs DMSO), 5 days (fraction); higher = more cells survive
Elesclomol = compound: CN(NC(=O)CC(=O)NN(C)C(=S)c1ccccc1)C(=S)c1ccccc1 [Elesclomol]
In short: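 Acceptance criteria were a control CV below 25% and at least one doubling per plate. Lung cancer cell lines in 1536-well plates got five library-drug doses (not always all listed) √10 apart by pinning and were left 5 days with no medium change. Viability divides treated-well nuclei by vehicle-well nuclei and is the median across plates. Nuclei were counted by MetaXpress from 4× Hoechst images.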

Elesclomol + Linsitinib = compound: CN(NC(=O)CC(=O)NN(C)C(=S)c1ccccc1)C(=S)c1ccccc1 [Elesclomol] + C[C@]1(O)C[C@@H](c2nc(-c3ccc4ccc(-c5ccccc5)nc4c3)c3c(N)nccn32)C1 [Linsitinib] (partner 1 µM)
In short: (§1)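 Relative viability is defined as nuclei in treated wells over nuclei in vehicle wells. Duplicate plates were run and medians reported. Lung cancer cell lines in 1536-well plates were dosed by pin tool one day after seeding, with one drug or with a fixed anchor-drug dose plus five library-drug doses (not always all listed) in √10 steps, and nuclei were counted after 5 days.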

Elesclomol + Foretinib = compound: CN(NC(=O)CC(=O)NN(C)C(=S)c1ccccc1)C(=S)c1ccccc1 [Elesclomol] + COc1cc2c(Oc3ccc(NC(=O)C4(C(=O)Nc5ccc(F)cc5)CC4)cc3F)ccnc2cc1OCCCN1CCOCC1 [Foretinib] (partner 0.25 µM)
In short: as §1

Elesclomol + Phenformin = compound: CN(NC(=O)CC(=O)NN(C)C(=S)c1ccccc1)C(=S)c1ccccc1 [Elesclomol] + N=C(N)NC(=N)NCCc1ccccc1 [Phenformin] (partner 250 µM)
In short: as §1

Elesclomol + Crizotinib = compound: CN(NC(=O)CC(=O)NN(C)C(=S)c1ccccc1)C(=S)c1ccccc1 [Elesclomol] + C[C@@H](Oc1cc(-c2cnn(C3CCNCC3)c2)cnc1N)c1c(Cl)ccc(F)c1Cl [Crizotinib] (partner 1 µM)
In short: as §1

| Cell Line | relative viability (Elesclomol; 0.003162 µM) | relative viability (Elesclomol; 0.01 µM) | relative viability (Elesclomol; 0.03162 µM) | relative viability (Elesclomol; 0.1 µM) | relative viability (Elesclomol + Linsitinib; first compound 0.003162 µM) | relative viability (Elesclomol + Linsitinib; first compound 0.01 µM) | relative viability (Elesclomol + Linsitinib; first compound 0.03162 µM) | relative viability (Elesclomol + Linsitinib; first compound 0.1 µM) | relative viability (Elesclomol + Foretinib; first compound 0.003162 µM) | relative viability (Elesclomol + Foretinib; first compound 0.01 µM) | relative viability (Elesclomol + Foretinib; first compound 0.03162 µM) | relative viability (Elesclomol + Foretinib; first compound 0.1 µM) | relative viability (Elesclomol + Phenformin; first compound 0.003162 µM) | relative viability (Elesclomol + Phenformin; first compound 0.01 µM) | relative viability (Elesclomol + Phenformin; first compound 0.03162 µM) | relative viability (Elesclomol + Phenformin; first compound 0.1 µM) | relative viability (Elesclomol + Crizotinib; first compound 0.003162 µM) | relative viability (Elesclomol + Crizotinib; first compound 0.01 µM) | relative viability (Elesclomol + Crizotinib; first compound 0.03162 µM) | relative viability (Elesclomol + Crizotinib; first compound 0.1 µM) |
| --- | --- | --- | --- | --- | --- | --- | --- | --- | --- | --- | --- | --- | --- | --- | --- | --- | --- | --- | --- | --- |
| NCI-H2087 | 0.987 | 0.743 | 0.624 | 0.313 | 1.01 | 0.607 | 0.587 | 0.696 | 0.936 | 0.767 | 0.577 | 0.299 | 0.376 | 0.343 | 0.284 | 0.181 | 0.814 | 0.531 | 0.495 | 0.457 |
| H3255 | 0.879 | 0.785 | 0.566 | 0.442 | 1.01 | 0.702 | 0.428 | 0.432 | 0.765 | 0.884 | 0.57 | 0.398 | 0.312 | 0.338 | 0.366 | 0.313 | 0.967 | 0.459 | 0.377 | 0.409 |
| SK-MES-1 | 1.05 | 0.76 | 0.794 | 0.489 | 1.04 | 0.814 | 0.992 | 0.62 | 0.87 | 0.502 | 0.859 | 0.854 | 0.644 | 0.456 | 0.506 | 0.421 | 1.06 | 0.887 | 0.964 | 0.625 |
| NCI-H23 | 1 | 0.566 | 0.786 | 0.128 | 0.572 | – | 0.504 | 0.143 | 0.971 | 1.03 | 0.746 | 0.247 | 0.822 | 0.671 | 0.77 | 0.506 | 0.56 | – | 0.49 | 0.116 |
| HCC-827 | 1.05 | 1.02 | 1.02 | 1 | 0.959 | 0.851 | 1.03 | 0.707 | 0.991 | 0.913 | 1.12 | 0.683 | 0.382 | 0.402 | 0.371 | 0.393 | 0.965 | 0.94 | 0.96 | 0.675 |
| HCC-78 | 0.87 | 1 | 0.861 | 0.926 | 0.425 | 0.521 | 0.497 | 0.408 | 0.516 | 0.574 | 0.548 | 0.583 | 0.631 | 0.758 | 0.539 | 0.615 | 0.356 | 0.325 | 0.326 | 0.336 |
| UMC-11 | 1.05 | 0.939 | 0.709 | 0.612 | 1.02 | 1.05 | 0.672 | 0.615 | 1.01 | 0.91 | 0.789 | 0.482 | 0.312 | 0.343 | 0.328 | 0.31 | 0.649 | 0.445 | 0.343 | 0.183 |
| NCI-H1975 | 0.988 | 0.732 | 0.278 | 0.181 | 0.942 | 0.764 | 0.225 | 0.126 | 0.943 | 0.832 | 0.311 | 0.164 | 0.43 | 0.329 | 0.388 | 0.281 | 0.934 | 0.835 | 0.407 | 0.132 |
| NCI-H1563 | 0.786 | 0.675 | 0.651 | 0.542 | 0.817 | 0.705 | 0.632 | 0.468 | 0.727 | 0.724 | 0.617 | 0.459 | 0.589 | 0.569 | 0.516 | 0.479 | 0.649 | 0.623 | 0.502 | 0.453 |
| COR-L23 | 0.969 | 0.629 | 0.461 | 0.256 | 0.985 | 0.511 | 0.32 | 0.244 | 0.977 | 0.667 | 0.418 | 0.198 | 0.367 | 0.187 | 0.163 | 0.053 | 0.633 | 0.409 | 0.341 | 0.124 |
| CAL-12T | 0.939 | 0.442 | 0.269 | 0.0778 | 0.942 | 0.321 | 0.0785 | 0.0465 | 1.04 | 1.16 | 0.263 | 0.144 | 0.456 | 0.159 | 0.153 | 0.0571 | 0.5 | 0.0867 | 0.0556 | 0.0701 |
| SW 1573 | 0.795 | 0.267 | 0.121 | 0.0819 | 0.706 | 0.224 | 0.116 | 0.102 | 0.769 | 0.65 | 0.165 | 0.0891 | 0.274 | 0.114 | 0.159 | 0.0405 | 0.806 | 0.344 | 0.147 | 0.128 |
| NCI-H2126 | 0.962 | 0.934 | 0.807 | 0.556 | 0.665 | 0.699 | 0.731 | 0.65 | 1.19 | 0.943 | 0.435 | 0.201 | 0.562 | 0.526 | 0.538 | 0.46 | 1.02 | 1.05 | 1.03 | 1.02 |
